Each compound was assayed on PC-3 human prostatic cancer cells (assay: Alamar Blue cell proliferation assay, PC3). Settings: Table 2, read-out: AB: PC3.
Assay type: cell-based
Experimental: (§1) A representative cell-proliferation assay protocol using Alamar Blue dye (stored at 4° C., use 20 ul per well) is described hereafter.
(§2) 96-Well Plate Setup and Compound Treatment
(§3) a. Split and trypsinize cells.
(§4) b. Count cells using hemocytometer.
(§5) c. Plate 4,000-5,000 cells per well in 100 μl of medium and seed into a 96-well plate according to the following plate layout. Add cell culture medium only to wells B10 to B12. Wells B1 to B9 have cells but no compound added.
(§6) d. Add 100 μl of 2× drug dilution to each well in a concentration shown in the plate layout above. At the same time, add 100 μl of media into the control wells (wells 1310 to B12). Total volume is 200 μl/well.
(§7) e. Incubate four (4) days at 37° C., 5% CO2 in a humidified incubator.
(§8) f. Add 20 μl Alamar Blue reagent to each well.
(§9) g. Incubate for four (4) hours at 37° C., 5% CO2 in a humidified incubator.
(§10) h. Record fluorescence at an excitation wavelength of 544 nm and emission wavelength of 590 nm using a microplate reader.
(§11) In the assays, cells are cultured with a test compound for approximately four days, the dye is then added to the cells and fluorescence of […] dye is detected after approximately four hours. Different types of cells can be utilized in the assays (e.g., HCT-116 human colorectal carcinoma cells, PC-3 human prostatic cancer cells and MiaPaca human pancreatic carcinoma cells).

Work on `CN1CCCN(C(=O)c2cccc(-c3ccc(CC4C(=O)Nc5ccc(Cl)cc54)o3)c2)CC1` (stereo not shown) [drawing 213] yielded an IC50 of 15400 nM.

Same assay, conditions: Table 3, read-out: AB: PC3

`CN1CCCN(C(=O)c2cccc(-c3ccc(/C=C4/C(=O)Nc5ccc(F)cc54)o3)c2)CC1` and `NS(=O)(=O)c1ccc(-c2ccc(/C=C3/C(=O)Nc4ccc(Cl)cc43)o2)cc1` cannot be ordered by IC50: greater than 10000 nM for the first, greater than 10000 nM for the second.

The compounds below were run against recombinant PIM-1 (Homo sapiens, UniProt P11309) (assay: PIM-1 kinase assay (radiometric, 15 uM ATP, DMSO 4%)). Settings: not given.
Assay type: biochemical
Experimental: The following procedure was used to assay the PIM-1 kinase activity of compounds of the invention. Other methods for assaying PIM-1 and other PIM kinases, as well as methods to assay for activity against the various kinases in FIG. 1, are known in the art.
(specific activity approx. 500 cpm/pmol), DMSO 4% and test inhibitor compound at the required concentration. The reaction was initiated by the addition of the Magnesium ATP mixture. After 40 min incubation at 23° C., the reactions were quenched by the addition of 100 ul 0.75% Phosphoric acid, and the labeled peptide collected by filtration through a phosphocellulose filter plate. The plate was washed 4 times with 0.075% phosphoric acid (100 ul per well) and then, after the addition of scintillation fluid (20 ul per well), the counts were measured by a scintillation counter.

recombinant PIM-1, sequence (P11309 whole entry): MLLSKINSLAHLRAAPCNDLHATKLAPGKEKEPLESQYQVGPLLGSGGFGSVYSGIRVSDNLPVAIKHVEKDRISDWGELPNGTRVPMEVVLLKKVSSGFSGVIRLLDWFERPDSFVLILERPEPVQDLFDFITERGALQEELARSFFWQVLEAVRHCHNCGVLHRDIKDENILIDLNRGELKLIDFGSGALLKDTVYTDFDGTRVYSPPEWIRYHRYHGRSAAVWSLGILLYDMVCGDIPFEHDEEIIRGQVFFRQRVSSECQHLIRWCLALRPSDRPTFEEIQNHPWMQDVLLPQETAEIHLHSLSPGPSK

Work on `CCC(=O)Nc1cc(C(=O)NCCN2CCCC2)ccc1-c1ccc(/C=C2/C(=O)Nc3ccccc32)o1` [Compound 168] yielded an inhibition at 2 µM of -14.9%.

Same assay, conditions: Table 1; % inhibition at the high dose (2 micromolar) in a single screening assay; 15 μM ATP

Compared with `O=C1Nc2ccc(Cl)cc2/C1=C\c1ccc(-c2cccc(C(=O)NCc3ccnc(N4CCCC4)c3)c2)o1` [Compound 141], `COc1cc(CNC(=O)c2cccc(-c3ccc(/C=C4/C(=O)Nc5ccc(Cl)cc54)o3)c2)ccn1` [Compound 142] is higher in inhibition at 2 µM: 26.3% for the first, 32.7% for the second.

Compared with `COC(=O)c1ccc(-c2ccc(/C=C3/C(=O)Nc4ccccc43)o2)c(N)c1` [Compound 143], `O=C1Nc2ccccc2/C1=C\c1ccc(-c2ccc(C(=O)O)c(O)c2)o1` [Compound 170] is higher in inhibition at 2 µM: 30.6% for the first, 43% for the second.

First: CCOC(=O)c1cncc(-c2ccc(/C=C3/C(=O)Nc4ccc(Cl)cc43)o2)c1 [Compound 145]
Second: CN(C)C(=O)c1cccc(-c2ccc(/C=C3/C(=O)Nc4ccc(Cl)cc43)o2)c1 [Compound 175]
The inhibition at 2 µM of the first is higher: 34.5% for the first, 21.2% for the second.

First: O=C1Nc2ccccc2/C1=C\c1ccc(-c2ccc(C(=O)NCCN3CCCC3)c(F)c2)o1 [Compound 159]
Second: O=C1Nc2ccccc2/C1=C\c1ccc(-c2ccc(C(=O)NCCCn3ccnc3)c(F)c2)o1 [Compound 161]
The inhibition at 2 µM of the first is lower: 11.3% for the first, 28.4% for the second.

Compared with `CN1CCCN(C(=O)c2ccc(-c3ccc(/C=C4/C(=O)Nc5ccccc54)o3)cc2F)CC1` [Compound 160], `O=C1Nc2ccc(Cl)cc2/C1=C\c1ccc(-c2cccc(C(=O)N3CCCC(O)C3)c2)o1` (stereo not shown) [Compound 178] is lower in inhibition at 2 µM: -17.1% for the first, -19.4% for the second.

Going from `NCc1cccc(-c2ccc(/C=C3/C(=O)Nc4ccccc43)o2)c1` [Compound 165] to `CC(C)(C)OC(=O)Nc1cccc(-c2ccc(/C=C3/C(=O)Nc4ccccc43)o2)c1` [Compound 181], the inhibition at 2 µM falls from 19.4% to 14.5%.

Compared with `O=C1Nc2ccccc2/C1=C\c1ccc(-c2cccc(C(=O)Nc3nccs3)c2)o1` [Compound 167], `O=C1Nc2ccc(Cl)cc2/C1=C\c1ccc(-c2cccc(C(=O)NCCc3ccccn3)c2)o1` [Compound 172] is higher in inhibition at 2 µM: -3.02% for the first, 29.3% for the second.

Going from `CCCC(=O)Nc1cc(C(=O)NCCN2CCCC2)ccc1-c1ccc(/C=C2/C(=O)Nc3ccccc32)o1` [Compound 169] to `O=C1Nc2ccc(Cl)cc2/C1=C\c1ccc(-c2cccc(C(=O)NCCc3ccc(O)cc3)c2)o1` [Compound 179], the inhibition at 2 µM rises from -29.9% to 18.4%.

Compared with `CN(CCc1ccccn1)C(=O)c1cccc(-c2ccc(/C=C3/C(=O)Nc4ccc(Cl)cc43)o2)c1` [Compound 171], `CON(C)C(=O)c1cccc(-c2ccc(/C=C3/C(=O)Nc4ccc(Cl)cc43)o2)c1` [Compound 176] is lower in inhibition at 2 µM: -0.11% for the first, -59.6% for the second.

Going from `CCN(CC)C(=O)c1cccc(-c2ccc(/C=C3/C(=O)Nc4ccc(Cl)cc43)o2)c1` [Compound 173] to `CN(C)c1ccc(CNC(=O)c2cccc(-c3ccc(/C=C4/C(=O)Nc5ccc(Cl)cc54)o3)c2)cc1` [Compound 177], the inhibition at 2 µM falls from 29.2% to 10.9%.

Same assay, conditions: Table 1; given for compounds with IC50 at or below 2 micromolar; 15 uM ATP; read-out: PIM-1 IC50

`Cc1cnc(CNC(=O)c2ccc(-c3ccc(/C=C4/C(=O)Nc5ccc(Cl)cc54)o3)cc2)cn1` [Compound 140] and `CN1CCCN(C(=O)c2ccc(-c3ccc(/C=C4/C(=O)Nc5ccc(Cl)cc54)o3)cc2)CC1` [Compound 196] cannot be ordered by IC50: less than 1000 nM for the first, less than 1000 nM for the second.

`Nc1cc(C(=O)NCCN2CCCC2)ccc1-c1ccc(/C=C2/C(=O)Nc3ccccc32)o1` [Compound 144] and `O=C1Nc2ccccc2/C1=C\c1ccc(-c2ccc(C(=O)NCCN3CCCC3)c(O)c2)o1` [Compound 182] cannot be ordered by IC50: less than 1000 nM for the first, less than 2000 nM for the second.

`O=C1Nc2ccc(Cl)cc2/C1=C\c1ccc(-c2cncc(C(=O)O)c2)o1` [Compound 146] and `CN1CCCC(NC(=O)c2cncc(-c3ccc(/C=C4/C(=O)Nc5ccc(Cl)cc54)o3)c2)C1` (stereo not shown) [Compound 149] cannot be ordered by IC50: less than 2000 nM for the first, less than 1000 nM for the second.

`O=C1Nc2ccc(Cl)cc2/C1=C\c1ccc(-c2cncc(C(=O)NCCN3CCCC3)c2)o1` [Compound 147] and `CCN1CCCC1CNC(=O)c1cncc(-c2ccc(/C=C3/C(=O)Nc4ccc(Cl)cc43)o2)c1` (stereo not shown) [Compound 150] cannot be ordered by IC50: less than 1000 nM for the first, less than 1000 nM for the second.

`CCN1CCCC1CNC(=O)c1cncc(-c2ccc(/C=C3/C(=O)Nc4ccc(Cl)cc43)o2)c1` (stereo not shown) [Compound 151] and `CCN(CC)CCNC(=O)c1cncc(-c2ccc(/C=C3/C(=O)Nc4ccc(Cl)cc43)o2)c1` [Compound 152] cannot be ordered by IC50: less than 1000 nM for the first, less than 1000 nM for the second.

`CN1CCCN(C(=O)c2cncc(-c3ccc(/C=C4/C(=O)Nc5ccc(Cl)cc54)o3)c2)CC1` [Compound 154] and `C/C(=C1\C(=O)Nc2ccc(Cl)cc21)c1ccc(-c2ccc(C(=O)N3CCCN(C)CC3)cc2)o1` [Compound 195] cannot be ordered by IC50: less than 1000 nM for the first, less than 1000 nM for the second.

`O=C1Nc2ccccc2/C1=C\c1ccc(-c2ccc3ccc(NCCN4CCCC4)nc3c2)o1` [Compound 155] and `O=C(CCN1CCCC1)Nc1cccc(-c2ccc(/C=C3/C(=O)Nc4ccccc43)o2)c1` [Compound 184] cannot be ordered by IC50: less than 1000 nM for the first, less than 1000 nM for the second.

`C/C(=C1\C(=O)Nc2ccccc21)c1ccc(-c2cccc(C(=O)NCCN3CCCC3)c2)o1` [Compound 156] and `Cc1cc(-c2cccc(C(=O)NCCN3CCCC3)c2)oc1/C=C1/C(=O)Nc2ccccc21` [Compound 157] cannot be ordered by IC50: less than 2000 nM for the first, less than 2000 nM for the second.

`Cc1cc(-c2cccc(C(=O)NCc3cncn3C)c2)oc1/C=C1/C(=O)Nc2ccccc21` [Compound 158] and `NC(=O)c1cccc(-c2ccc(/C=C3/C(=O)Nc4ccccc43)o2)c1` [Compound 166] cannot be ordered by IC50: less than 2000 nM for the first, less than 1000 nM for the second.

`O=C1Nc2ccccc2/C1=C\c1ccc(-c2ccccc2O)o1` [Compound 162] and `Nc1cccc(-c2ccc(/C=C3/C(=O)Nc4ccccc43)o2)c1` [Compound 183] cannot be ordered by IC50: less than 2000 nM for the first, less than 2000 nM for the second.

`O=C1Nc2ccccc2/C1=C\c1ccc(-c2cccc(CO)c2)o1` [Compound 163] and `O=C1Nc2ccccc2/C1=C\c1ccc(-c2ccc(CO)cc2)o1` [Compound 164] cannot be ordered by IC50: less than 2000 nM for the first, less than 2000 nM for the second.

`O=C1Nc2ccc(Cl)cc2/C1=C\c1ccc(-c2cccc(C(=O)NC3=NCCS3)c2)o1` [Compound 174] and `O=C1Nc2ccc(Cl)cc2/C1=C\c1ccc(-c2cccc(C(=O)NCC(O)c3ccccn3)c2)o1` (stereo not shown) [Compound 188] cannot be ordered by IC50: less than 1000 nM for the first, less than 1000 nM for the second.

`O=C1Nc2ccc(Cl)cc2/C1=C\c1ccc(-c2cccc(C(=O)NCC(O)c3ccccc3)c2)o1` (stereo not shown) [Compound 180] and `O=C1Nc2ccc(Cl)cc2/C1=C\c1ccc(-c2cccc(C(=O)NCC(O)c3cccnc3)c2)o1` (stereo not shown) [Compound 189] cannot be ordered by IC50: less than 1000 nM for the first, less than 1000 nM for the second.

`CCN(CC)CCC(=O)Nc1cccc(-c2ccc(/C=C3/C(=O)Nc4ccccc43)o2)c1` [Compound 185] and `CCN(CC)CC(=O)Nc1cccc(-c2ccc(/C=C3/C(=O)Nc4ccccc43)o2)c1` [Compound 187] cannot be ordered by IC50: less than 1000 nM for the first, less than 1000 nM for the second.

`O=C(CN1CCCC1)Nc1cccc(-c2ccc(/C=C3/C(=O)Nc4ccccc43)o2)c1` [Compound 186] and `O=C1Nc2ccc(Cl)cc2/C1=C\c1ccc(-c2cccc(C(=O)NCC(O)c3ccncc3)c2)o1` (stereo not shown) [Compound 190] cannot be ordered by IC50: less than 1000 nM for the first, less than 1000 nM for the second.

`O=C1Nc2ccc(Cl)cc2/C1=C\c1ccc(-c2cccc(C(=O)NCCN(CCO)CCO)c2)o1` [Compound 193] and `CN1CCCN(C(=O)c2cccc(-c3ccc(CC4C(=O)Nc5ccc(Cl)cc54)o3)c2)CC1` (stereo not shown) [Compound 197] cannot be ordered by IC50: less than 1000 nM for the first, less than 1000 nM for the second.

Same assay, conditions: Table 2; read-out: PIM1: IC50

`CN1CCCN(C(=O)c2cccc(-c3ccc(CC4C(=O)Nc5ccc(Cl)cc54)o3)c2)CC1` (stereo not shown) [drawing 213] was tested, and the IC50 was less than 100 nM.

Same assay, conditions: Table 3; DMSO 4%; read-out: PIM1: IC50 (DMSO 4%)

`CN1CCCN(C(=O)c2cccc(-c3ccc(/C=C4/C(=O)Nc5ccc(F)cc54)o3)c2)CC1` and `NS(=O)(=O)c1ccc(-c2ccc(/C=C3/C(=O)Nc4ccc(Cl)cc43)o2)cc1` cannot be ordered by IC50: less than 1000 nM for the first, less than 1000 nM for the second.

Same assay, conditions: Table 4; 15 um ATP; read-out: PIM1: IC50 (15 um ATP)

`Nc1cccc(-c2ccc(/C=C3/C(=O)Nc4ccccc43)o2)c1` [drawing 234] was tested, and the IC50 was 992 nM.

What follows are compounds tested on MiaPaca human pancreatic carcinoma cells (assay: Alamar Blue cell proliferation assay, MiaPaCa). Settings: MIA PaCa-2, Table 2, read-out: AB: MiaPaCa.
Assay type: cell-based
Experimental: as §1, §2, §3, §4, §5, §6, §7, §8, §9, §10, §11

For `CN1CCCN(C(=O)c2cccc(-c3ccc(CC4C(=O)Nc5ccc(Cl)cc54)o3)c2)CC1` (stereo not shown) [drawing 213], the IC50 was 559 nM.

These compounds were tested on K-562 (assay: Alamar Blue cell proliferation assay, K-562). Settings: Homo sapiens, K562, Table 2, read-out: AB: K-562.
Assay type: cell-based
Experimental: as §1, §2, §3, §4, §5, §6, §7, §8, §9, §10, §11

In the case of `CN1CCCN(C(=O)c2cccc(-c3ccc(CC4C(=O)Nc5ccc(Cl)cc54)o3)c2)CC1` (stereo not shown) [drawing 213], the IC50 is reported as 240 nM.

Same assay, conditions: Homo sapiens, K562, Table 4, read-out: AB: K-562

For `Nc1cccc(-c2ccc(/C=C3/C(=O)Nc4ccccc43)o2)c1` [drawing 234], the IC50 was 5130 nM.

The compounds below were run on MV-4-11 (assay: Alamar Blue cell proliferation assay, MV-4-11). Settings: Homo sapiens, MV4-11, Table 4, read-out: AB: MV-4-11.
Assay type: cell-based
Experimental: as §1, §2, §3, §4, §5, §6, §7, §8, §9, §10, §11

`Nc1cccc(-c2ccc(/C=C3/C(=O)Nc4ccccc43)o2)c1` [drawing 234] was tested, and the IC50 was 2440 nM.
